# According to the OPERA property sets (Mansouri et al. 2018):
# Conditions: for log10 BCF / log10 biotransformation half-life (days): fish
SMILES,boiling point [°C],melting point [°C],other results
O=C1OC(=O)C(F)(F)C(F)(F)C1(F)F,72,–,–
CCCCN(CCCC)CCCC,216,-70,log10 vapour pressure (mmHg): -1.03; ready biodegradability: not readily biodegradable; log10 BCF: 1.4
CCCCCCCCCCCCCCCc1cccc(O)c1O,–,59.5,–
CC1(N)CCC(C(C)(C)N)CC1 (configuration not stated),–,-45,–
O=S(=O)(Cl)c1ccc(Br)cc1,–,76,–
O=C(O)C(F)(F)C(F)(F)C(F)(F)C(F)(F)C(F)(F)C(F)(F)F,177,–,log10 vapour pressure (mmHg): -0.876
C=C,-104,-169,log10 Henry constant (atm·m³/mol): -0.642; log10 Koa: 0.28; log10 vapour pressure (mmHg): 4.72
Cc1c(C)c(C)c(O)c(C)c1C,267,128,–
O[C@@H]1C[C@H]2CC[C@@H]1C2,176,133,–
COc1cc(Cl)c(Cl)cc1O,–,–,log10 vapour pressure (mmHg): -2.35; log10 BCF: 2.03; log10 biotransformation half-life (days): -0.15
C1CCCCNCCC1,–,-19,–
COc1ccc(C(=O)c2ccc(OC)cc2O)c(O)c1,–,140,–
COC(=O)c1cccc(N)c1,–,39,–
O=[N+]([O-])C1CCCCC1,205,-34,–
NC(=O)N=NC(N)=O,–,–,log10 vapour pressure (mmHg): -9.73; ready biodegradability: not readily biodegradable
N#CCON=C(C#N)c1ccccc1,–,55,log10 vapour pressure (mmHg): -0.457
C[C@]12C=CC(=O)C=C1CC[C@H]1[C@@H]3C[C@@H](O)[C@](O)(C(=O)CO)[C@@]3(C)C[C@H](O)[C@@]12F,–,270,–
S=C=Nc1cccc(Cl)c1,250,–,–
C=CCc1ccc(OC)c(OC)c1,263,–,log10 vapour pressure (mmHg): -1.92; ready biodegradability: readily biodegradable
COC(=O)C1(S(=O)(=O)c2ccc([N+](=O)[O-])cc2)CC1,–,127,–
CCC(=O)c1cc(O)ccc1O,–,96.5,–

SMILES,boiling point [°C],melting point [°C],other results
CC[C@@H](N)CO,178,-2,–
O=C(CO)[C@@H](O)[C@H](O)[C@@H](O)CO,–,165,–
Cc1ccc2c(c1)C(=O)c1ccccc1C2=O,–,177,–
Clc1cc(Cl)c2oc3c(Cl)c(Cl)c(Cl)cc3c2c1,–,219,log10 vapour pressure (mmHg): -8.73
Cc1cc(O)c(C)c(O)c1,278,163,–
CCOC(C)(C)OCC,114,–,–
CN(C)c1cccc(N)c1,270,–,–
CC1(C)O[C@@H]2C[C@H]3[C@@H]4CCC5=CC(=O)C=C[C@]5(C)[C@H]4[C@@H](O)C[C@]3(C)[C@]2(C(=O)CO)O1,–,274,–
Clc1ccc(Oc2ccccc2)cc1,284,–,log10 vapour pressure (mmHg): -2.57
CCOc1ccc(Cc2nc(C)cc3cc(OC)c(OC)cc23)cc1OC,–,124,–
OCCc1ccc2ccccc2n1,–,103,–
CNC[C@H](O)c1ccc(O)c(O)c1,–,212,–
N#Cc1ccc(N)cc1,–,84,–
CC(C)[C@@H]1CC[C@@H](C)[C@H](O)C1,218,–,–
C=CC1(C(C)CCC)C(=O)NC(=O)NC1=O (configuration not stated),–,91,–
O=Cc1cccc([N+](=O)[O-])c1,–,58.5,log10 vapour pressure (mmHg): -2.14
COc1cc(C(Cl)(Cl)Cl)cc(Cl)n1,–,–,log10 Koc (L/kg): 3.48
COC=Cc1ccccc1,212,–,–
O=c1oc2ccccc2c(O)c1C1CC(c2ccc(-c3ccc(Br)cc3)cc2)Cc2ccccc21 (configuration not stated),–,230,–
CC(C)C(OC(=O)c1cccnc1)c1ccc(Cl)cc1 (configuration not stated),–,61,–
CCCCCCCCCCCCOS(=O)(=O)[O-].[Na+],–,206,–

SMILES,boiling point [°C],melting point [°C],other results
CC1(C)CC(O)CC(C)(C)N1,–,–,ready biodegradability: not readily biodegradable
N#Cc1ccc(C=O)cc1,–,100,–
Clc1ccc2nccnc2c1,–,64,–
Brc1ccc(I)cc1,252,92,–
O=[N+]([O-])c1cc(Cl)cc(Cl)c1O,–,122,ready biodegradability: not readily biodegradable; log10 BCF: 1.32
Fc1c(F)c(F)c(Br)c(Br)c1F,198,12,–
CC(=O)NS(=O)(=O)c1ccc(N)cc1,–,183,–
CNCc1ccccc1,180,–,–
ClC(I)I,–,-4,–
CCCc1ccc(O)cc1,233,22,log10 Henry constant (atm·m³/mol): -5.94; log10 vapour pressure (mmHg): -1.43
CC(C)C(C)C,57.9,-129,log10 vapour pressure (mmHg): 2.37
CCCCCCCCCCCCCCCCCCCCCC(=O)O,–,81,–
CCCCCC(=O)OCCC,187,-68.7,–
C[C@H]1[C@H]2CC[C@H]3[C@@H]4CC=C5C[C@@H](N(C)C)CC[C@]5(C)[C@H]4CC[C@]23CN1C,–,126,–
O=C1NC(=O)C2(CCc3ccccc3C2)N1 (configuration not stated),–,268,–
C#CCCCCCC#C,162,-27.3,–
Oc1c(Cl)cc(Cl)c(Cl)c1Cl,–,70,log10 Koc (L/kg): 3.35; log10 vapour pressure (mmHg): -3.18; ready biodegradability: not readily biodegradable; log10 BCF: 2.3
O=C1c2ccccc2C(=O)c2c(Cl)cccc21,–,163,ready biodegradability: not readily biodegradable; log10 BCF: 2.3; log10 biotransformation half-life (days): -0.23
O=C(OCCOC(=O)c1ccccc1)c1ccccc1,–,73.5,–
